Results taken from patent publication US5700481A, “Transdermal drug delivery process” (Takeda Chemical Industries, Ltd., priority 1995, dated 1997).

Assays:
[1] = Transdermal iontophoretic delivery of salmon calcitonin; serum concentration by radioimmunoassay and bioavailability (AUC relative to intravenous) (Example 1); format: in vivo, SD rat (male, 7-week aged); details: for bioavailability (BA): 20 μg per membrane (BSA pretreated), 40 kHz, duty 30%, 15 min x 3 at 5 min interval, vs intravenous AUC
Experimental: (§1) An abdominal skin of a SD rat (male, 7-week aged) was clipped with a hair clipper and treated with a shaver under pentobarbital-anesthetization, and was slightly rubbed with an absorbent cotton (cotton wool) containing a 70% aqueous solution of ethanol for defatting and disinfection. […] Meanwhile, in the Applicator A shown in FIG. 1, the dried drug was dissolved immediately before use by supplying or feeding water to the membrane from the reservoir. In the applicator B illustrated in FIG. 2, the applicator was first attached or adhered to the skin and then the dried drug was dissolved by supplying 120 μl of a distilled water from an injection tip. Further, a silver chloride electrode (2.5 cm^2) as a reference electrode was adhered and fixed in the opposite part to the adhered part of the applicator via an electrically conductible gel comprising 10% PVA gel containing 0.9% of NaCl in a thickness of 2 mm.
Then, a continuous voltage application for 15 minutes was repeated for 3 times at a time interval of 5 minutes in the following manner. That is, the voltage application was effected by a direct-current pulse application (depolarizing constant voltage square pulse application) with a frequency of 40 kHz and a duty (pulse-duty factor) of 30% using the applicator as an anode and the reference electrode as a cathode, with changing the applied voltage as follows. In the respective voltage application, observed electric current in the initial stage of the voltage application was respectively determined for each rat. The current density as a mean value for the subjects are as follows.
(1) Applicator A: voltage 6 V current density about 0.04 mA/cm^2
(2) Applicator B: voltage 12 V current density about 0.24 mA/cm^2
(3) Applicator C: voltage 12 V current density about 0.24 mA/cm^2
(§2) Blood was took from jugular veins (cervical vein) of the rat and centrifuged at a rate of 12,000 rpm for 10 minutes, and the concentration of the salmon calcitonin in the obtained serum sample was determined by a radioimmunoassay method. The results are illustrated in FIG. 3.

[2] = Correlation between initial electric current value and AUC value (Example 3); format: in vivo, SD rat (male, 7-week aged); details: in terms of dosage of 20 μg; initial current 0.2 mA/2.5 cm^2 to 0.7 mA/2.5 cm^2 (0.08 to 0.28 mA/cm^2); 48 tests; FIG. 5
Experimental: as §1, with “Further, a silver chloride electrode (2.5 cm^2) as a reference electrode was adhered and fixed in the opposite part to the adhered part of the applicator via an electrically conductible gel comprising 10% PVA gel containing 0.9% of NaCl in a thickness of 2 mm.” left out
Then, a continuous voltage application for 15 minutes was repeated for 3 times at a time interval of 5 minutes in the following manner. […] In the respective voltage application, observed electric current in the initial stage of the voltage application was respectively determined for each rat. […]
(§3) Under pentobarbital-anesthetization, an abdominal skin of a SD rat (male, 7-week aged) was clipped with a hair clipper and treated with a shaver, and was slightly rubbed with an absorbent cotton (cotton wool) containing a 70% aqueous solution of ethanol for defatting and disinfection. […] The current density determined in the initial stage of the voltage application was about 0.24 mA/cm^2 as a mean value of the each rat. […]

[3] = Transdermal iontophoretic delivery of salmon calcitonin with different amounts in drug-retaining membrane (Example 2); format: in vivo, SD rat (male, 7-week aged); details: 12 V
Experimental: as §1, with “Further, a silver chloride electrode (2.5 cm^2) as a reference electrode was adhered and fixed in the opposite part to the adhered part of the applicator via an electrically conductible gel comprising 10% PVA gel containing 0.9% of NaCl in a thickness of 2 mm.” left out
Blood was took from jugular veins (cervical vein) of the rat and centrifuged at a rate of 12,000 rpm for 10 minutes, and the concentration of the salmon calcitonin in the obtained serum sample was determined by a radioimmunoassay method. […]
as §3

[4] = Transdermal iontophoretic delivery of salmon calcitonin with stepwise decreased voltage (Example 4); format: in vivo, male SD rat (7-week aged); details: for bioavailability (BA): Applicator A, 4 μg per membrane (BAC pretreated), 30 kHz, duty 50%
Experimental: as §2
An abdominal skin of a male SD rat (7-week aged) was clipped with a hair clipper and treated with a shaver under pentobarbital-anesthetization, and was slightly rubbed with an absorbent cotton holding a 70% aqueous solution of ethanol for defatting and disinfection. […] Immediately before the use of the applicator, the dried drug was dissolved by supplying water from the reservoir. Further, a reference electrode was attached and fixed to the skin in the same manner as Example 1.
Then, in the common condition of a frequency of 30 kHz and a duty of 50%, the calcitonin was transdermally delivered according to the following processes:
(1) a process of applying a voltage of 12 V for 5 minutes and, without interruption, applying a voltage of 7.5 V for 40 minutes,
(2) a process of applying a voltage of 12 V for 15 minutes and, without interruption, applying a voltage of 7.5 V for 30 minutes, and
(3) a process of applying a voltage of 12 V for 15 minutes.
The salmon calcitonin concentrations in the serum were evaluated in the same manner as Example 1, and the results are illustrated in FIG. 6.

**Q.** With salmon calcitonin as the substance, how does the “bioavailability (BA)” value ([1]; Applicator A, applied voltage 6 V) read?
**A.** The value was 4.6%.

**Q.** And the “bioavailability (BA)” value ([1]; Applicator A, applied voltage 12 V)?
**A.** The value was 16.6%.

**Q.** And the “bioavailability (BA)” value ([1]; Applicator B, applied voltage 12 V)?
**A.** Its value is 16.6%.

**Q.** And the “salmon calcitonin concentration in the serum” value ([1]; applied voltage 12 V (iontophoresis (2) and (3)) in comparison with 6 V (1), FIG. 3)?
**A.** Its value is “can be increased in comparison with the iontophoresis (1)”.

**Q.** What about the AUC value [2] of the same substance?
**A.** The AUC value was “large AUC values”.

**Q.** And the “bioavailability (BA)” value ([3]; Applicator B, drug-retaining membrane (1), 10 μg (BAC pretreated), 40 kHz, duty 30%, 15 min x 3 at 5 min interval)?
**A.** Its value is 23.3%.

**Q.** What about the “serum salmon calcitonin concentration” value ([3]; according to possessing amount (10 or 20 μg), FIG. 4) of the same substance?
**A.** The value was “could be controlled according to the possessing amount”.

**Q.** And the “bioavailability (BA)” value ([4]; process (1): 12 V for 5 min then 7.5 V for 40 min)?
**A.** The value was 13.6%.

**Q.** And the “bioavailability (BA)” value ([4]; process (2): 12 V for 15 min then 7.5 V for 30 min)?
**A.** The value was 14.2%.

**Q.** And the “bioavailability (BA)” value ([4]; process (3): 12 V for 15 min)?
**A.** Its value is 3.6%.

**Q.** And the “serum salmon calcitonin concentration” value ([4]; processes (1) and (2) compared with process (3), FIG. 6)?
**A.** Its value is “high”.
